Assay results as given in US20070212360A1, “Modulation of mitochondrial oxygen consumption for therapeutic purposes” (priority 2006, published 2007).

Assays:
[1] = test system: PDK1 in wildtype and HIF1α knockout mouse embryo fibroblasts (MEFs); assay: Western blot of PDK1 in hypoxic MEFs; assay type: cell-based; conditions: 0.5% O2 24 h, 2 ng/ml
Experimental: FIG. 11. Inhibition of HIF1 increases oxygen consumption in vitro. (a) Western blot of wildtype and HIF1α knockout MEFs exposed normoxia (N) or hypoxia (H) (0.5% O2) for 24 hours in the presence or absence of 2 ng/ml echinomycin. (b) In vitro oxygen consumption of wildtype and HIF1α knockout MEFs (b) after exposure to 24 hours of normoxia or hypoxia (0.5% O2) in the presence or absence of 2 ng/ml echinomycin. Data are normalized to normoxic values. (*) indicate a significant difference relative to control (p<0.05).
Western blots. In brief, cells were harvested directly in RIPA buffer containing protease inhibitors, protein concentrations were quantified (Pierce), 25-50 μg of total protein was electrophoresed on a reducing Tris-Tricine gel, and electroblotted to PVDF membrane. Antibodies used were rabbit anti-PDK1 (Stressgen) (1:2000), murine anti-α tubulin (Research Diagnostics) (1:2000), and rabbit anti-Bnip3 and anti-Bnip3L as described previously by Papandreou et al. (2005) Cancer research 65, 3171-8. (1:500). Primary antibodies were detected with species-specific secondary antibodies labeled with Alkaline Phosphatase (Vector labs) (1:3000) and visualized with ECF (Amersham) on a Storm 860 phosphoimager (Molecular Devices).

[2] = test system: RKO and RKOShHIF1α cells; assay: In vitro oxygen consumption of RKO and RKOShHIF1α cells; assay type: cell-based, human; conditions: 0.5% O2 24 h
Experimental: FIG. 7. Inhibition of HIF1 and PDK1 increases oxygen consumption in vitro and in vivo. (a) Western blots of extracts from RKO and Su.86 cells exposed to normoxia (N) or hypoxia (H) (0.5% O2) for 24 h in the presence or absence of 2 ng/ml echinomycin probed for the indicated proteins. (b) Oxygen consumption rates of RKO and RKOShHIF1α cells (left) and Su.86 cells (right) after 24 h treatment with normoxia or hypoxia (0.5% O2) with or without 2 ng/ml echinomycin. Data are normalized to normoxic samples. (c) Relative oxygen consumption of RKO cells treated with hypoxia (0.5% O2) for 24 h in the presence of increasing concentrations of echinomycin. (d) Oxygen consumption rates of freshly explanted tumor tissue from RKO (n=16) and RKOShHIF1α (n=8) xenografts. (e) Oxygen consumption rates of RKO and RKOShHIF1 tumors from mice treated with 0.12 mg/kg echinomycin ip 24 h prior (n=8), or 50 mg/kg DCA ip 4 h prior (n=8). Data is normalized to PBS treated controls (n=8-16). (*) indicate a significant difference relative to control (p<0.05).
Oxygen consumption measurements. Cells were trypsinized and suspended at 3×10^6 to 6×10^6 cells per ml in normoxic DMEM+10% FBS. Oxygen consumption was measured in a 0.5 ml volume using an Oxytherm electrode unit (Hansatech, Norfolk, UK). […] Oxygen consumption was measured as above in a 1 ml volume and normalized to tissue weight.

[3] = test system: RKO and RKOShHIF1α tumors; assay: Tumor growth delay, RKO and RKOShHIF1α xenografts; assay type: in vivo, mouse
Experimental: FIG. 10. Pharmacologic inhibition of HIF1 or PDK1 enhances the response of tumor xenografts to the hypoxic cytotoxin tirapazamine. For all experiments, treatment was initiated when the mean tumor volume was 100-200 mm^3. (a) RKO tumor bearing mice were treated with 0.12 mg/kg echinomycin ip followed by 30 mg/kg tirapazamine ip at 24 hours, followed by a rest day for 3 cycles. Single agents were given at the same dose, on the same schedule. (b) RKO tumor bearing mice were treated with 50 mg/kg DCA ip followed by 20 mg/kg tirapazamine ip at 4 hours daily for 14 days. Single agents were given at the same dose, on the same schedule. (c,d,e) RKO (c), RKOShHIF1α (d), or Su.86 (e) tumor bearing mice were treated with echinomycin plus tirapazamine as described above for 6 cycles (Ech+TPZ), or tirapazamine followed by echinomycin at 24 hours followed by a rest day for 6 cycles (TPZ+Ech). For all experiments, arrows indicate when treatment was stopped.
Cell lines and tumor xenografts. RKO human colon carcinoma cells and Su.86 human pancreatic carcinoma cells were obtained from the American Type Culture Collection (ATCC, Manassas, Va.). The RKOShHIF1α cell line in which HIF1α is stably knocked down by shRNA has been described previously. RKO and immortalized MEF cells were grown in Dulbecco's Modified Eagle's Media (DMEM) supplemented with 10% fetal bovine serum (FBS). Su.86 cells were grown in RPMI 1640 medium supplemented with 10% FBS. Cells were exposed to hypoxia by placing culture dishes into an Invivo2 humidified hypoxia workstation (Ruskin Technologies, Bridgend, UK) at 0.5% O2. Echinomycin (a gift of A. Giaccia, Stanford University) was included in the media at the indicated concentrations. Tumor xenografts were established by injecting 5×10^6 cells for the RKO lines or 1×10^7 cells for the Su.86 line sc into the flanks of 6-8 week old female nude mice. To monitor tumor growth, caliper measurements were made of two perpendicular diameters, and the formula (d1)(d2)(d2)(0.52) was used to calculate tumor volume. […]

For CS[C@H]1SC[C@H]2C(=O)N(C)[C@@H](C(C)C)C(=O)OC[C@@H](NC(=O)c3cnc4ccccc4n3)C(=O)N[C@@H](C)C(=O)N(C)[C@@H]1C(=O)N(C)[C@@H](C(C)C)C(=O)OC[C@@H](NC(=O)c1cnc3ccccc3n1)C(=O)N[C@@H](C)C(=O)N2C [echinomycin], the “hypoxic expression of PDK1 in HIF1α deficient cells” value ([1]; HIF1α knockout MEFs) was “no effect”, the “hypoxic PDK1 induction in wildtype MEFs” value ([1]; wildtype MEFs) was “blocked PDK1 induction” and the “effect on HIF1-dependent reduction in oxygen consumption in parental cells” value ([2]; RKO parental cells, increasing concentrations) was “dose-dependent block”. The “effect on oxygen consumption in RKOShHIF1α cells” value ([2]; RKOShHIF1α cells, 2 ng/ml) was “no effect”, the “tumor growth delay of combination compared to single agents, RKO tumors” value ([3]; 0.12 mg/kg echinomycin ip followed at 24 h by 30 mg/kg tirapazamine ip, rest day, 3 cycles) was “greater than additive” and the “effect on tumor growth, RKOShHIF1 tumors” value ([3]; echinomycin plus tirapazamine, regardless of the order the drugs were given, 6 cycles) was “no significant effect”. For the same compound, the “effect on growth of RKO tumors, reversed schedule” value ([3]; tirapazamine followed by echinomycin at 24 hours, 6 cycles, compared to echinomycin followed by tirapazamine) was “little effect”.
